Assays:
[1] = target: T1, MEK1 (Recombinant Human Protein) (Homo sapiens, UniProt Q02750); test: MEK1 kinase inhibition assay (Z'-LYTE Kinase Assay Kit-Ser/Thr 03 Peptide); format: biochemical; details: 4 hours at 37° C, read-out: IC50 for inhibiting MEK kinase (MEK1)
T1 construct: purchased Invitrogen PV3093
Method: MEK1 kinase activity was tested in vitro by the following method.
MEK kinase used in the assay: MEK1 (Recombinant Human Protein, Invitrogen, Catalog No. PV3093).
Kit used in the assay: Z′-LYTE™ Kinase Assay Kit-Ser/Thr 03 Peptide (Invitrogen, Catalog No. PV3176).
The following in vitro assay was used to determine the activity of the compounds of the present invention for inhibiting the […] MEK kinase. The test compound was dissolved in dimethyl sulfoxide to the desired concentration. 1× Buffer A (Invitrogen, Catalog No. PV3189) was prepared, ATP was diluted with 1× Buffer A to obtain 400 μM ATP solution, appropriate amounts of Z′-LYTE™ Ser/Thr 03 Peptide (Invitrogen, Catalog No. PV3200), MEK kinase (MEK1) Enzymes and 1× Buffer A were mixed, and appropriate amounts of Z′-LYTE™ Ser/Thr 03 phosphoPeptide substrate (Invitrogen, Catalog No. PV3215) and 1× Buffer A were formulated into a mixture to be tested. The 4% DMSO solution of the test compound was prepared from 1× buffer and DMSO solution of the test compound. 2.5 μL DMSO solution of the test compound was added to a reaction well, and then 1× Buffer A, 2.5 μL of 400 μM ATP solution, 5 μL of enzyme and substrate mixture were added to become a 10 μL of reaction system. The reaction system was incubated for 4 hours at 37° C., and a mixture was prepared according to Reagent A:Buffer B=1:1024. 5 μL of a mixture of Reagent A (Invitrogen, Catalog No. PV3295) and Buffer B (Invitrogen, Catalog No. P3127) was added to a reaction well, the reaction system was incubated for 60 minutes at 25° C. The fluorescence was read by a NovoStar ELISA with excitation wavelength: 400 nm, and emission wavelength: 445 nm and 520 nm.
The activity of the compounds of the present invention: The above assay was used to determine the biochemical activity of the compounds of the present invention for inhibiting MEK kinase (MEK1).

Colo205 cell = test: Proliferation inhibition on Colo205 (CCK8); format: cell-based; details: Homo sapiens, COLO 205, Colo205, 72 hours
Text: Cell line used in the assay: Colo205 (Cell Bank of the Chinese Academy of Sciences, Catalog No. TCHu102).
The following in vitro cell assay is to determine the activity of the compounds of the present invention for inhibiting the proliferation of human colon cancer cell, and the activity is expressed as IC50. General programs of this kind of assay were as follows: First, the cell line to be tested (purchased from Cell Bank of the Chinese Academy of Sciences) was inoculated in a 96-well culture plate with a suitable cell concentration of 4000 cells/mL medium, and was cultured in a carbon dioxide incubator at 37° C., then grown overnight. The medium was replaced by new medium added with a series of concentrations (10000 nM, 1000 nM, 100 nM, 10 nM, 1 nM, 0.1 nM) of the test compound solutions. The plates were placed back in the incubator, and continuously cultured for 72 hours. After 72 hours, CCK8 (Cell Counting Kit-8, Catalog No.: CK04, purchased from colleagues chemical company) method was used to determine the proliferation inhibition activity of the test compounds. IC50 values were calculated from the inhibition data of the test compounds at a series of different concentrations.
(§1) The above assay was used to determine the biochemical activity of the compounds of the present invention.

HCT116 cell = test: Proliferation inhibition on human colon cancer cell HCT116 (CCK8); format: cell-based; details: HCT-116, HCT116, 72 hours
Text: The following in vitro cell assay was used to determine the activity of the compounds of the present invention for inhibiting the proliferation of human colon cancer cell, and the activity is expressed as IC50.
Cell line which was used in the experiment: HCT116 (Cell Bank of the Chinese Academy of Sciences, Catalog No. TCHu99).
General programs of this kind of assay were as follows: First, the cell line to be tested was inoculated in a 384-well culture plate with a suitable cell concentration of 1000 cells/well, and was cultured in an incubator under the conditions of 37° C. and 5% CO2, then grown overnight. The medium was replaced by new medium added with a series of concentrations (1000 nM, 250 nM, 62.50 nM, 15.63 nM, 3.91 nM, 0.98 nM, 0.24 nM, 0.06 nM, 0.015 nM, 0.004 nM) of the test compound solutions. The plates were placed back in the incubator, and continuously cultured for 72 hours. After 72 hours, CCK8 (Cell Counting Kit-8, Catalog No.: CK04, purchased from colleagues chemical company) method was used to determine the proliferation inhibition activity of the test compounds. IC50 values were calculated from the inhibition data of the test compounds at a series of different concentrations.
as §1

[2] = Pharmacokinetics assay in SD rats, intragastric administration; format: in vivo, Sprague-Dawley (SD) rats; details: 10 mg/kg; for AUC / CL/F / half-life / MRT / Cmax: both sexes, Sprague-Dawley, rat, plasma, po; for AUC: read-out: Area Under Curve AUC; for CL/F: read-out: Clearance CL/F; for half-life: read-out: Half-Life T½ (converted); for MRT: read-out: Mean Residence Time MRT; for Cmax: read-out: Plasma Conc. Cmax
Method: Sprague-Dawley (SD) rats were used as test animals. The compounds of Example 1, Example 22, Example 29 and Example 31 were administered intragastrically to rats to determine the drug concentration in plasma at different time points by a LC/MS/MS method. The pharmacokinetic behavior of the compounds of the present invention was studied and evaluated in rats.
16 Healthy adult SD rats, half male and half female, purchased from SINO-BRITSH SIPPR/BK LAB. ANIMAL LTD., CO, Certificate No.: SCXK (Shanghai) 2008-0016, were divided into four groups, with 4 rats in each group.
The appropriate amounts of test compounds were weighed and mixed with 40 μL of tween 80 and 0.5% CMC-Na to prepare a 1 mg/mL suspension by an ultrasonic method.
After an overnight fast, 16 SD rats, half male and half female, were divided into 4 groups, with 4 rats in each group, and administered the test compounds intragastrically at a dose of 10 mg/kg, and an administration volume of 10 mL/kg.
Blood samples (0.1 mL) were taken from the orbital sinus before administration, and at 0.5 h, 1 h, 2 h, 4 h, 6 h, 8 h, 11 h, 24 h and 48 h after administration, stored in heparinized tubes, and centrifuged for 10 minutes at 3,500 rpm to separate blood plasma. The plasma samples were stored at −20° C. The rats were fed 2 hours after administration.
The concentration of the test compounds in rat plasma after intragastrically administering the test compounds was analyzed by a LC-MS/MS method. The linearity range of the method is 1.00-2000 ng/ml, and the lower limit of quantification is 1.00 ng/ml. Plasma samples were analyzed after protein precipitation.

T1 sequence (Q02750 whole entry): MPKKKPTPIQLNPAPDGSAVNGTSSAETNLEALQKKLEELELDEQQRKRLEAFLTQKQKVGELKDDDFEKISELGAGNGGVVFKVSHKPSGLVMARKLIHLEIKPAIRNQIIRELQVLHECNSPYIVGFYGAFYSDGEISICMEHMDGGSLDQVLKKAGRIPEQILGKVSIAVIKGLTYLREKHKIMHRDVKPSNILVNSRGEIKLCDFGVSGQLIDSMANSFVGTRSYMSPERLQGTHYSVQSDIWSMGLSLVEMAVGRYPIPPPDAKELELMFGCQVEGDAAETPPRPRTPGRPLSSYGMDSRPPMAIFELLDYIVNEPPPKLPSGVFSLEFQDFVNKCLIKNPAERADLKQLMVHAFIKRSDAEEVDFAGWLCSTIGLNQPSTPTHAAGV

| IC50 [1] [nM] | IC50 (Colo205 cell) [nM] | IC50 (HCT116 cell) [nM] | Apparent Distribution Volume Vd [2] [L/kg] | AUC [2] [ng·h/mL] | CL/F [2] [mL/min/kg] | half-life [2] [h] | MRT [2] [h] | Cmax [2] [ng/mL] | SMILES |
| --- | --- | --- | --- | --- | --- | --- | --- | --- | --- |
| 3.9 | 3.6 | 36.4 | 4.483 ± 3.051 | 18100 ± 9970 | 11.6 ± 5.9 | 4.12 ± 0.96 | 4.43 ± 0.96 | 3370 ± 756 | Cc1ccc(Oc2cc(=O)n(C)c(Nc3ccc(I)cc3F)c2C(N)=O)cn1 [Example 31, 2-((2-fluoro-4-iodophenyl)amino)-1-methyl-4-((6-methylpyridin-3-yl)oxy)-6-oxo-1,6-dihydropyridine-3-carboxamide] |
| 3.6 | 0.8 | 8.9 | 11.319 ± 6.87 | 6120 ± 3030 | 32.9 ± 15.5 | 3.79 ± 0.76 | 3.79 ± 0.5 | 1440 ± 396 | Cc1ncccc1Oc1cc(=O)n(C)c(Nc2ccc(I)cc2F)c1C(N)=O [Example 29, 2-((2-fluoro-4-iodophenyl)amino)-1-methyl-4-((2-methylpyridin-3-yl)oxy)-6-oxo-1,6-dihydropyridine-3-carboxamide] |

Second part, the compound before the results:

| SMILES | IC50 [1] [nM] | IC50 (Colo205 cell) [nM] | IC50 (HCT116 cell) [nM] | Apparent Distribution Volume Vd [2] [L/kg] | AUC [2] [ng·h/mL] | CL/F [2] [mL/min/kg] | half-life [2] [h] | MRT [2] [h] | Cmax [2] [ng/mL] |
| --- | --- | --- | --- | --- | --- | --- | --- | --- | --- |
| CCS(=O)(=O)Nc1cccc(Oc2cc(=O)n(C)c(Nc3ccc(I)cc3F)c2C(N)=O)c1C [Example 3, 4-(3-(ethylsulfonamido)-2-methylphenoxy)-2-((2-fluoro-4-iodophenyl)amino)-1-methyl-6-oxo-1,6-dihydropyridine-3-carboxamide] | 4.1 | 0.04 | 0.06 |  |  |  |  |  |  |
| Cc1cc(F)ccc1Oc1cc(=O)n(C)c(Nc2ccc(I)cc2F)c1C(N)=O [Example 22, 4-(4-fluoro-2-methylphenoxy)-2-((2-fluoro-4-iodophenyl)amino)-1-methyl-6-oxo-1,6-dihydropyridine-3-carboxamide] | 4.3 | 6.1 | 10.3 | 98.789 ± 42.165 | 1110 ± 746 | 224 ± 151 | 7.18 ± 4.64 | 11.3 ± 6.7 | 108 ± 38 |
| Cc1c(F)cccc1Oc1cc(=O)n(C)c(Nc2ccc(I)cc2F)c1C(N)=O [Example 1, 4-(3-fluoro-2-methylphenoxy)-2-((2-fluoro-4-iodophenyl)amino)-1-methyl-6-oxo-1,6-dihydropyridine-3-carboxamide] | 4.7 | 0.7 | 8.6 | 163.863 ± 87.909 | 642 ± 187 | 280 ± 94.6 | 6.61 ± 1.66 | 10.5 ± 2.41 | 56.3 ± 15.6 |

From patent publication US10064848B2, “Pyridic ketone derivatives, method of preparing same, and pharmaceutical application thereof” (Shanghai Hengrui Pharmaceutical Co., Ltd., priority 2013, dated 2018)
